Article PMC8349882 (Molecular cell, 2021)

Biological target: GLR3.4-S1S2 (Arabidopsis thaliana, UniProt Q8GXJ4, DEL602-708)
Test: crystal structure
Type: binding
Conditions: endogenous ligand from expression, none added

Chain of GLR3.4-S1S2 (Q8GXJ4 492-601, stated change not applied): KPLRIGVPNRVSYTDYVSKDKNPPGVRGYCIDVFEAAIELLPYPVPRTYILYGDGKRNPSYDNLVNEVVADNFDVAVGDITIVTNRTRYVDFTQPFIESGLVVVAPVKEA
Chain of GLR3.4-S1S2 (Q8GXJ4 709-842, stated change not applied): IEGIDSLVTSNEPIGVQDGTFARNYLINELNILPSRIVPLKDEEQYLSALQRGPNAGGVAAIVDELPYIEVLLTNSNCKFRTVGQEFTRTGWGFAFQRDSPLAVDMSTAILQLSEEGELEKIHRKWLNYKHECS

N[C@@H](CO)C(=O)O [serine]
crystal structure: The serine-bound LBD structure was solved without adding the ligand to the protein
